According to patent US20130109687A1, “METHODS OF TREATING HIV INFECTION: INHIBITION OF DNA DEPENDENT PROTEIN KINASE” (priority 2010, published 2013):
Entries after “also recorded” stand apart in the source; their conditions may differ. Peptide text beside a SMILES is read from it. * marks the point of attachment. Cbz = O=C(OCc1ccccc1)*; CH2F = FC*

Legend:
HIV-189.6 = assay: Frequency of infection by p24 positivity, flow cytometry; format: cell-based, HIV-1; settings: primary CD4+ lymphocytes, wild type HIV-189.6; NU7026 vs DMSO
Experimental: Purified, activated CD4^+ T cells were infected 2-3 days after isolation. For nucleofected cells, infection was done 36 h after nucleofection. HIV-1 infection of CD4^+ T lymphocytes was performed in 96-well round-bottomed culture plates by combining 10 μl virus stock with 150 μl CD4^+ T lymphocytes (1.5×10^5 cells). The multiplicity of infection was ˜1.0. CD4^+ T lymphocytes were harvested at the indicated times following exposure to virus.
CD4^+ T lymphocytes were harvested for Annexin V, Vivid and intracellular p24-Gag staining at the indicated times following exposure to virus. In brief, the cells were washed and stained with Annexin V-APC (BD Pharmigen) and Vivid (Invitrogen) for 20 min. Cells were washed once, fixed, and permeabilized with Cytoperm/Cytofix (BD Pharmingen) for 20 min. Cells were then stained for p24 Gag (KC-57 fluorescein isothiocyanate (FITC); Coulter) for 30 min and washed once in 1× Perm/wash buffer (BD Pharmingen). Flow cytometry was performed with an LSR II cell analyzer (Becton Dickinson), and data analysis was performed with FlowJo software (Tree Star, Inc.)

[1] = test system: primary human CD4+ T cells infected with HIV-189.6; assay: Viability (Annexin V / ViVid) of primary CD4+ T cells infected with HIV-189.6; format: cell-based; settings: primary CD4+ lymphocytes, wild type HIV-189.6; NU7026 vs DMSO vehicle; 6 days after infection
Experimental: Cell cycle analysis in 293T cells was performed on ethanol-fixed cells using the propidium iodide staining method after transduction with lentiviral vectors encoding wild type or mutant VPR. Cell debris was excluded from the analysis, and the DNA content of cells below the diploid level, sub-G1, was used to calculate the apoptosis rate. The association of VPR with VprBP and DNA-PK was determined by immunoprecipitation. Briefly, whole cell extracts were prepared in lysis buffer and incubated with the relevant antibodies, concentrated on Protein G beads, and analyzed by Western blotting. HIV-1 viral stocks were generated by transfecting 293T cells with the HIV-189.6 wild type and IVPR plasmids followed by propagation in CEMx174 cells as previously described^16. CD4^+ T cells were isolated from elutriated lymphocytes using magnetic bead purification, activated and infected as described in Methods. […]
CD4^+ T lymphocytes were isolated from elutriated lymphocytes prepared from blood of healthy donors by negative selection with a CD4^+ T-cell isolation kit II (Miltenyi Biotech) according to the manufacturer's instructions. The purity of the isolated CD4^+ T cells was assessed by fluorescence-activated cell sorting (FACS) analysis for CD4 (BD-Pharmingen) and 95% of the cells were CD4^+ upon isolation. […]

293T cells = assay: VPR-induced apoptosis and cell cycle analysis by propidium iodide DNA content in 293T cells; format: cell-based, human
Experimental: Cell cycle analysis in 293T cells was performed on ethanol-fixed cells using the propidium iodide staining method after transduction with lentiviral vectors encoding wild type or mutant VPR. Cell debris was excluded from the analysis, and the DNA content of cells below the diploid level, sub-G1, was used to calculate the apoptosis rate. The association of VPR with VprBP and DNA-PK was determined by immunoprecipitation. Briefly, whole cell extracts were prepared in lysis buffer and incubated with the relevant antibodies, concentrated on Protein G beads, and analyzed by Western blotting. HIV-1 viral stocks were generated by transfecting 293T cells with the HIV-189.6 wild type and IVPR plasmids followed by propagation in CEMx174 cells as previously described^16. CD4^+ T cells were isolated from elutriated lymphocytes using magnetic bead purification, activated and infected as described in Methods. For siRNA transfections in CD4^+ lymphocytes, isolated CD4 cells were transduced by nucleofection. In some experiments, cells were treated with either DMSO or the DNA-PK inhibitor NU7026 (Sigma) during the infection period. Viability of infected primary CD4^+ T cells was performed using combined staining with Annexin V-APC (BD Pharmigen) and the amine reactive viability dye ViVid (Invitrogen). Flow cytometry was performed with a LSR II cell analyzer.
CEMX174 cells were cultured in RPMI with 10% FBS and antibiotics (penicillin and streptomycin). HEK293T cells were cultured in DMEM supplemented with 10% FBS and antibiotics (penicillin and streptomycin). For immunoprecipitation experiments HEK293T cells were transfected with 3 μg of either […] or 102-HAVpr Q65R using the LipofectAMINE 2000 reagent (Life Technologies, Inc.). For cell cycle analysis HEK293T cells were harvested, washed with ice-cold PBS and resuspended in 70% cold ethanol while vortexing. The cells were incubated at −20° C. overnight, washed once with PBS and resuspended in PBS containing 25 μg/ml propidium iodide and 100 μg/ml RNaseA for 15 minutes at 25° C. Stained cells were then analyzed by flow cytometry.
Lentivirus vectors were produced by transiently transfecting HEK293T cells using the calcium phosphate method. […]. Virus supernatants were collected at 48 h post transfection. The harvested supernatants were cleared by centrifugation, concentrated and frozen at −80° C. for storage.

DNA-PK = target: T1, DNA-PK (Homo sapiens, UniProt P78527); assay: Western blot of γH2AX (H2AX phosphorylation) in cells transfected with VPR-encoding plasmid; format: cell-based; settings: indicated concentrations of inhibitor (FIG. 2d)
T1 construct: endogenous in cells; host or cells: HEK293T (inferred; only VPR is transfected, DNA-PK is the cells' own)
Experimental: FIG. 2d, VPR induction of DNA-PKcs autophosphorylation (left, lanes 1,2) and Western blot analysis of γH2AX from cells transfected with a VPR-encoding plasmid and treated with the indicated concentrations of DNA-PK inhibitor NU7026 (right, lanes 3-7). Western blot analysis of autophosphorylated DNA-PKcs was performed using anti-phosphoserine 2056 DNA-PKcs from cells transfected with an empty vector or a VPR-encoding plasmid. Cell lysates were subjected to Western blotting using the indicated antibodies.
Cell extracts for Western blots and immunoprecipitations were made in cell lysis buffer (Cell Signal). Immunoprecipitations were performed overnight at 4° C. using normal rabbit serum, anti-VprBP or anti-DNA-PK polyclonal antibodies (Bethyl Laboratories). Protein G beads (Invitrogen) were then added for 2 h, washed three times with 1× lysis buffer, boiled and loaded onto 4-15% polyacrylamide Tris Glycine gels (BioRad). The primary antibodies used for Western blotting were anti-DNA-PK, anti-VprBP (Bethyl Laboratories), anti-actin (Sigma), anti-γH2AX (Cell Signaling), anti-HA (Santa Cruz Biotechnology), anti-Ku70, and anti-Ku80 (BD Transduction Laboratories).

[2] = 293T cells transduced with VPR lentiviral vector, NU7026 10 μM vs DMSO, 72 h after transduction
[3] = 293T cells transduced with lentiviral vector encoding wild type VPR, 100 μM Z-VAD-fmk vs DMSO

Compound	frequency of infection, p24 positivity (HIV-189.6)	direct cell killing by the virus (cell death following HIV infection) [1]	G2/M cell cycle arrest (293T cells; [2])	VPR-induced apoptosis (293T cells; [2])	VPR induced H2AX phosphorylation (DNA-PK)	G2/M blockade (293T cells; [3])	VPR-induced apoptosis (293T cells; [3])
O=c1cc(N2CCOCC2)oc2c1ccc1ccccc12 [NU7026]	remained unchanged	profoundly diminished; also recorded: substantial reduction	without diminishing	alleviated	diminished by this DNA-PK inhibitor in a dose-dependent manner		
COC(=O)C[C@H](NC(=O)[C@H](C)NC(=O)[C@@H](NC(=O)OCc1ccccc1)C(C)C)C(=O)CF [zVAD-fmk] (Cbz-Val-Ala-Asp(OMe)-CH2F)						did not reverse	significantly reduced
